Laboratory results as given in US20230050653A1, “ROCK INHIBITOR AND PREPARATION METHOD THEREFOR AND USE THEREOF” (WUHAN LL SCIENCE AND TECHNOLOGY DEVELOPMENT CO., LTD., priority 2019, published 2023).

Experiments:
[1] = target: T1, ROCK2 kinase (Homo sapiens, UniProt O75116); experiment: In vitro evaluation of ROCK2 kinase activity (HTRF KinEASE-STK time-resolved fluorometric assay); assay type: biochemical
T1 construct: purchased Invitrogen PV3759
Description: ROCK2 activity screening. ROCK2 activity was detected using a 96-well (Cisbio) time-resolved fluorometric assay. The assay for ROCK2 was performed in the following assay buffer: 5 mM MgCl2 (Sigma), 1 mM DTT (Sigma) and 1× kinase buffer. The kinase buffer was used for dilution. 7.5 μL of ROCK2 kinase (Invitrogen, PV3759) was added to a 96-well microplate to reach a final concentration of 0.4 ng/μL, and then 0.25 μL of test compound (DMSO content: 1% (volume fraction)) was added. The mixture was incubated at room temperature for 0.5 h. To start the reaction, the kinase buffer was used to mix ATP (Aladdin) and the substrate STK-substrate 2-biotin. 7.5 μL of the mixed solution was added to the microplate to reach final concentrations of 6.739 μM and 1 μM. The resulting mixture was incubated for 2 h at room temperature. 5 mL of detection buffer was mixed with STK antibody-Cryptate, and then an appropriate volume of the mixture was mixed with an equal volume of streptavidin-XL665. 10 μL of the resulting mixture was added to the microplate to stop the reaction. After further incubation for about 1 h, the microplate was read on a Molecular Devices SpectraMax i3x multifunctional microplate reader. The kinase buffer, the STK-substrate 2-biotin, the detection buffer, the STK antibody-Cryptate, and the streptavidin-XL665 were all from HTRF KinEASE-STK kit (Cisbio, 1000 tests, 61[…]).

[2] = target: T2, ROCK1 kinase (Homo sapiens, UniProt Q13464); experiment: In vitro evaluation of ROCK1 kinase selectivity (HTRF KinEASE-STK time-resolved fluorometric assay); assay type: biochemical
T2 construct: purchased Invitrogen
T2 sequence (Q13464 whole entry): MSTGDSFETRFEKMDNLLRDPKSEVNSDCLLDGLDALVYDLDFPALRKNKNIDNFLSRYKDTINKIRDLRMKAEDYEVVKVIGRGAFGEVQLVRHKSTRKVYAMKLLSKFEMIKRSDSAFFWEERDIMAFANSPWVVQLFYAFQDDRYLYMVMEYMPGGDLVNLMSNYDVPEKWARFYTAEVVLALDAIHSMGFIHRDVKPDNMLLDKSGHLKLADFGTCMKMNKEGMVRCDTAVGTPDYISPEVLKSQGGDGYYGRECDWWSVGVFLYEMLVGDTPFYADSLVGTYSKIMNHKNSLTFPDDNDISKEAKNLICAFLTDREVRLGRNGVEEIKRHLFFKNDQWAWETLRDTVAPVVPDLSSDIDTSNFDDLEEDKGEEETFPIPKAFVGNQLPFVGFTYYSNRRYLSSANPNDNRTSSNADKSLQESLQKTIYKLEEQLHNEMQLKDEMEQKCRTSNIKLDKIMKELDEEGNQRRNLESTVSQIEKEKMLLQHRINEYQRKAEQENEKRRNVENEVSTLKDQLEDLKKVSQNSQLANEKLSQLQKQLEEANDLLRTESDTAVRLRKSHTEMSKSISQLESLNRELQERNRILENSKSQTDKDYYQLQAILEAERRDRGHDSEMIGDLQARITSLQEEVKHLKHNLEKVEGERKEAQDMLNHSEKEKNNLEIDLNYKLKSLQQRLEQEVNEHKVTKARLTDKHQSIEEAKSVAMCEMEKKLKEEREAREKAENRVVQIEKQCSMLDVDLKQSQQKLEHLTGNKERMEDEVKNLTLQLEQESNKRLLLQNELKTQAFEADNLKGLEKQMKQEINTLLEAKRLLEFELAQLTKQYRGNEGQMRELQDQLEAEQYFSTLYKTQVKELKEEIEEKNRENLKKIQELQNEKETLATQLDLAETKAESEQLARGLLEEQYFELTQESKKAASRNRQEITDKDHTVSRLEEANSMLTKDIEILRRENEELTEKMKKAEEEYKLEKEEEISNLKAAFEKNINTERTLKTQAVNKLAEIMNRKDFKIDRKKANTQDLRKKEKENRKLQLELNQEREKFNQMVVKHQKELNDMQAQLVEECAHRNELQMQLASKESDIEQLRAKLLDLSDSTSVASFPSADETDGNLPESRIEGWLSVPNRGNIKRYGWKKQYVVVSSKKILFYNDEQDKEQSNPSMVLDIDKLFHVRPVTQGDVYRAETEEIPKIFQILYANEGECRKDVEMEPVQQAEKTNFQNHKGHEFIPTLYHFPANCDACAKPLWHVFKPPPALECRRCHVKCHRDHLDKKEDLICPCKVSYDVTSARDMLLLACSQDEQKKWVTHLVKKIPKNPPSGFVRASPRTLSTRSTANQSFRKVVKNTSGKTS
Description: ROCK1 activity was detected using a 96-well (Cisbio) time-resolved fluorometric assay. The assay for ROCK1 was performed in the following assay buffer: 5 mM MgCl2 (Sigma), 1 mM DTT (Sigma) and 1× kinase buffer. The kinase buffer was used for dilution. 7.5 μL of ROCK1 kinase (Invitrogen) was added to a 96-well microplate to reach a final concentration of 0.4 ng/μL, and then 0.25 μL of test compound (DMSO content: 1%) was added. The mixture was incubated at room temperature for 0.5 h. To start the reaction, the kinase buffer was also used to mix ATP (Aladdin) and the substrate STK-substrate 2-biotin. 7.5 μL of the mixed solution was added to the microplate to reach final concentrations of 3.53 μM and 1 μM. The resulting mixture was incubated for 2 h at room temperature. […] was mixed with STK antibody-Cryptate, and then an appropriate volume of the mixture was mixed with an equal volume of streptavidin-XL665. 10 μL of the resulting mixture was added to stop the reaction. After further incubation for about 1 h, the microplate was read on a Molecular Devices SpectraMax i3x multifunctional microplate reader. The kinase buffer, the STK-substrate 2-biotin, the detection buffer, the STK antibody-Cryptate, and the streptavidin-XL665 were all from HTRF KinEASE-STK kit (Cisbio, 1000 tests, 61[…]).

T1 sequence (O75116 whole entry): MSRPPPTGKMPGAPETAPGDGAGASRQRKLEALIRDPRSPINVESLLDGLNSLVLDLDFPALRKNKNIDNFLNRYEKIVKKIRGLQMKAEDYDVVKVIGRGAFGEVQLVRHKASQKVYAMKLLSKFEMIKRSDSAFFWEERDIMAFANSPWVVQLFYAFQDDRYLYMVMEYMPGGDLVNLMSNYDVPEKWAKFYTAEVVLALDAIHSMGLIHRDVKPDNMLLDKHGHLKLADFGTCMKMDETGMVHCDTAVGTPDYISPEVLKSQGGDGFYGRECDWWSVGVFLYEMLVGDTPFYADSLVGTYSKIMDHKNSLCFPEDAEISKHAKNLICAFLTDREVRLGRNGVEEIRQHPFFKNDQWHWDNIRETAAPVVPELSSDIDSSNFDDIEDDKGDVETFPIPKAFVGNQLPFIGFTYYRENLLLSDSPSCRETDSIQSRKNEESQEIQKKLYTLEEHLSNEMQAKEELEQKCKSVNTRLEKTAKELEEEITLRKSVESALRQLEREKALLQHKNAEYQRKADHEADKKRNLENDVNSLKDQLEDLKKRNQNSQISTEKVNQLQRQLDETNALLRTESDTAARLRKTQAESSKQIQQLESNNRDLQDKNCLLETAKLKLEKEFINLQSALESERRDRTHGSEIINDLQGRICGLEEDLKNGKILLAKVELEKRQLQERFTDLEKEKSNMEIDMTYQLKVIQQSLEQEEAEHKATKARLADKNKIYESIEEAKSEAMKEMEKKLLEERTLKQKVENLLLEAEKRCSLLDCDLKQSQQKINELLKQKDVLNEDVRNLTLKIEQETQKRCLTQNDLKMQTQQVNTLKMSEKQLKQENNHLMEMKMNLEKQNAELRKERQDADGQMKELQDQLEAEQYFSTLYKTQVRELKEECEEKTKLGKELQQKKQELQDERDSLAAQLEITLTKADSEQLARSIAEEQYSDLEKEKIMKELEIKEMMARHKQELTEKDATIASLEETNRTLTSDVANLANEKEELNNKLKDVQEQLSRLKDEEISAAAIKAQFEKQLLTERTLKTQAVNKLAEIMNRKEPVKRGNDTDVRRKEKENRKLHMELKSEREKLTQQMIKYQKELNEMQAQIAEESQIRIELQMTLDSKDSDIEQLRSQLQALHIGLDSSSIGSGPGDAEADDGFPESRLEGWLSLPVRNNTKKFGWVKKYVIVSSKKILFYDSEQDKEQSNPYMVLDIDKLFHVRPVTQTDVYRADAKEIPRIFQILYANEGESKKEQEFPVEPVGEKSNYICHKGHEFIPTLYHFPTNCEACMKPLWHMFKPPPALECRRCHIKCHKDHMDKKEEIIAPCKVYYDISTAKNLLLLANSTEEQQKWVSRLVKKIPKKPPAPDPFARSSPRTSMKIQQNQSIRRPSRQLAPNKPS

Compound	IC50 [1]	IC50 [2]
O=C(N[C@H](CN1CC(F)(F)C1)c1cc(F)cc(F)c1)N1CCc2cc(-c3c[nH]nc3F)c(F)cc21 [Compound T340]	≤ 50 nM	50 to 500 nM
COc1cc(F)cc(C(C)NC(=O)N2CCc3cc(-c4cn[nH]c4)c(F)cc32)c1 (stereo not shown) [Compound T341, 6-fluoro-N-(1-(3-fluoro-5-methoxyphenyl)ethyl)-5-(1H-pyrazol-4-yl)indoline-1-carboxamide]	≤ 50 nM	≤ 50 nM
COc1cc(F)cc(CNC(=O)N2CCc3cc(-c4cn[nH]c4F)ccc32)c1 [Compound T342, 5-(5-fluoro-1H-pyrazol-4-yl)-N-(3-fluoro-5-methoxybenzyl)indoline-1-carboxamide]	≤ 50 nM	≤ 50 nM
CN1CC(COc2cc(F)cc(C(CO)NC(=O)N3CCc4cc(-c5cn[nH]c5)c(F)cc43)c2)C1 (stereo not shown) [Compound T343, 6-fluoro-N-(1-(3-fluoro-5-((1-methylazetidin-3-yl)methoxy)phenyl)-2-hydroxyethyl)-5-(1H-pyrazol-4-yl)indoline-1-carboxamide]	50 to 500 nM	500 to 5000 nM
COc1cc(F)cc([C@@H](CO)NC(=O)c2ncn3cc(-c4cn[nH]c4)ccc23)c1 [Compound T344, (S)-N-(1-(3-fluoro-5-methoxyphenyl)-2-hydroxyethyl)-6-(1H-pyrazol-4-yl)imidazo[1,5-a]pyridine-1-carboxamide]	≤ 50 nM	≤ 50 nM
O=C(NCc1cc(F)cc(OCC2CC2)c1)N1CCc2cc(-c3c[nH]nc3F)c(F)cc21 [Compound T347, N-(3-(cyclopropylmethoxy)5-fluorobenzyl)-6-fluoro-5-(3-fluoro-1H-pyrazol-4-yl)indoline-1-carboxamide]	≤ 50 nM	≤ 50 nM
N#Cc1cc(F)cc(CNC(=O)N2CCc3cc(-c4c[nH]nc4N)c(F)cc32)c1 [Compound T348, 5-(3-amino-1H-pyrazol-4-yl)-N-(3-cyano-5-fluorobenzyl)-6-fluoroindoline-1-carboxamide]	500 to 5000 nM	500 to 5000 nM
O=C(NCc1cc(F)cc(OC(F)(F)F)c1)N1CCc2cc(-c3cn[nH]c3)c(F)cc21 [Compound T349, 6-fluoro-N-(3-fluoro-5-(trifluoromethoxy)benzyl)-5-(1H-pyrazol-4-yl)indoline-1-carboxamide]	500 to 5000 nM	500 to 5000 nM
O=C(COc1cc(F)cc([C@@H](CO)NC(=O)N2CCc3cc(-c4cn[nH]c4)c(F)cc32)c1)N1CC(F)(F)C1 [Compound T350, (S′)-N-(1-(3-(2-(3,3-difluoroazetidin-1-yl)-2-oxoethoxy)-5-fluorophenyl)-2-hydroxyethyl)-6-fluoro-5-(1H-pyrazol-4-yl)indoline-1-carboxamide]	≤ 50 nM	≤ 50 nM
COc1cc(F)cc(CNC(=O)N2CCc3cc(-c4c[nH]nc4F)c(F)cc32)c1 [Compound T351, 6-fluoro-5-(3-fluoro-1H-pyrazol-4-yl)-N-(3-fluoro-5-methoxybenzyl)indoline-1-carboxamide]	≤ 50 nM	≤ 50 nM
COc1cc(F)cc([C@@H](CO)NC(=O)c2cnc3cc(-c4cn[nH]c4)ccn23)c1 [Compound T352, (S)-N-(1-(3-fluoro-5-methoxyphenyl)-2-hydroxyethyl)-7-(1H-pyrazol-4-yl)imidazo(1,2-a)pyridine-3-carboxamide]	≤ 50 nM	≤ 50 nM
COc1cc(F)cc(CNC(=O)N2CCc3cc(-c4cn[nH]c4)c(C#N)cc32)c1 [Compound T353, 6-cyano-N-(3-fluoro-5-methoxybenzyl)-5-(1H-pyrazol-4-yl)indoline-1-carboxamide]	50 to 500 nM	500 to 5000 nM
CC(C)COc1cc(F)cc([C@@H](CO)NC(=O)N2CCc3cc(-c4cn[nH]c4)c(F)cc32)c1 [Compound T354, (S)-6-fluoro-N-(1-(3-fluoro-3-isobutoxyphenyl)-2-hydroxyethyl)-5-(1H-pyrazol-4-yl)indoline-1-carboxamide]	50 to 500 nM	50 to 500 nM

Second part, the compound after the results:

IC50 [1]	IC50 [2]	Compound
≤ 50 nM	≤ 50 nM	O=C(NC1CCCC1)c1cccc([C@@H](CO)NC(=O)N2CCc3cc(-c4cn[nH]c4)c(F)cc32)c1 [Compound T356-S, (S)-N-(1-(3-(cyclopentylcarbamoyl)phenyl)-2-hydroxyethyl)-6-fluoro-5-(1H-pyrazol-4-yl)indoline-1-carboxamide]
≤ 50 nM	≤ 50 nM	CC(C)NC(=O)COc1cc(F)cc([C@@H](CO)NC(=O)N2CCc3cc(-c4cn[nH]c4)c(F)cc32)c1 [Compound T358, (5)-6-fluoro-N-(1-(3-fluoro-5-(2-(isopropylamino)-2-oxoethoxy)phenyl)-2-hydroxyethyl)-5-(1H-pyrazol-4-yl)indoline-1-carboxamide]
≤ 50 nM	50 to 500 nM	COc1cc(F)cc([C@@H](CO)NC(=O)N2CCc3cc(-c4c[nH]nc4Cl)c(F)cc32)c1 [Compound T359, (S)-5-(3-chloro-1H-pyrazol-4-yl)-6-fluoro-N-(1-(3-fluoro-5-methoxyphenyl)-2-hydroxyethyl)indoline-1-carboxamide]
50 to 500 nM	500 to 5000 nM	CN(C)Cc1cc(F)cc(CNC(=O)c2ncn3cc(-c4cn[nH]c4)ccc23)c1 [Compound T360, N-(3-((dimethylamino)methyl)-5-fluorobenzyl)-6-(1H-pyrazol-4-yl)imidazo[1,5-a]pyridine-1-carboxamide]
50 to 500 nM	500 to 5000 nM	Nc1n[nH]cc1-c1cc2c(cc1F)N(C(=O)NCc1cc(F)cc(F)c1)CC2 [Compound T364, 5-(3-amino-1H-pyrazol-4-yl)-6-fluoro-N-(3,5-difluorobenzyl)indoline-1-carboxamide]
≤ 50 nM	50 to 500 nM	COc1cc(F)cc([C@@H](CO)NC(=O)N2CCc3cc(-c4c[nH]nc4N)c(F)cc32)c1 [Compound T365, (S′)-5-(3-amino-1H-pyrazol-4-yl)-6-fluoro-N-(1-(3-fluoro-5-methoxyphenyl)-2-hydroxyethyl)indoline-1-carboxamide]
50 to 500 nM	500 to 5000 nM	CN(C)C[C@H](NC(=O)N1CCc2cc(-c3c[nH]nc3F)c(F)cc21)c1cc(F)cc(F)c1 [Compound T366-R, (R)-N-(1-(3,5-difluorophenyl)-2-(dimethylamino)ethyl)-6-fluoro-5-(3-fluoro-1H-pyrazol-4-yl)indoline-1-carboxamide]
≤ 50 nM	≤ 50 nM	CN(C)C[C@@H](NC(=O)N1CCc2cc(-c3c[nH]nc3F)c(F)cc21)c1cc(F)cc(F)c1 [Compound T366-S, (S)-N-(1-(3,5-difluorophenyl)-2-(dimethylamino)ethyl)-6-fluoro-5-(3-fluoro-1H-pyrazol-4-yl)indoline-1-carboxamide]
≤ 50 nM	≤ 50 nM	CC(C)CNC(=O)COc1cc(F)cc([C@@H](CO)NC(=O)N2CCc3cc(-c4cn[nH]c4)c(F)cc32)c1 [Compound T367, (S)-6-fluoro-N-(1-(3-fluoro-5-(2-(isobutylamino)-2-oxoethoxy)phenyl)-2-hydroxyethyl)-5-(1H-pyrazol-4-yl)indoline-1-carboxamide]
50 to 500 nM	500 to 5000 nM	O=C(NCc1cccc(F)c1)c1ncn2cc(-c3cn[nH]c3)ccc12 [Compound T368, N-(3-fluorobenzyl)-6-(1H-pyrazol-4-yl)imidazo[1,5-a]pyridine-1-carboxamide]
